Test results taken from patent US6936636B2, “5-[phenyl-tetrahydronaphthalene-2-yl dihydronaphthalen-2-yl and heteroaryl-cyclopropyl]-pentadienoic acid derivatives having serum glucose reducing activity” (Allergan, Inc., priority 2003, dated 2005).
pEC50, pKi: −log10 of the molar value.

What was measured:
RXRα [1] = target: T1, RXRα (Homo sapiens, UniProt P19793); assay: RXR ligand binding assay
T1 construct: expressed in transfected cells
T1 sequence (P19793 1-462): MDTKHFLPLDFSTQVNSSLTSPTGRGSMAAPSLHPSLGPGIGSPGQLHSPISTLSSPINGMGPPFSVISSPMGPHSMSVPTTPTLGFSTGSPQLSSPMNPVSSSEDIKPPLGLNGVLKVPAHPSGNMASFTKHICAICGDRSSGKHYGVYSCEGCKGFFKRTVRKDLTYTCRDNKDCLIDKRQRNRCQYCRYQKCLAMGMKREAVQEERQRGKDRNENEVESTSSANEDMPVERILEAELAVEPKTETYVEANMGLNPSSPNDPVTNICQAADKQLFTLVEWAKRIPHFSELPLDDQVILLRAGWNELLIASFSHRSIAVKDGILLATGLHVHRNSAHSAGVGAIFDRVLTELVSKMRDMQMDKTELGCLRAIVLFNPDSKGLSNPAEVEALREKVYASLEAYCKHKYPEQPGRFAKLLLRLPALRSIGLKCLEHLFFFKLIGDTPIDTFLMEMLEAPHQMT
Excerpt: (§1) A holoreceptor transactivation assay and a ligand binding assay which measure the antagonist/agonist like activity of the compounds of the invention, or their ability to bind to the several retinoid receptor subtypes, respectively, are described in published PCT Application No. WO WO93/11755 (particularly on pages 30-33 and 37-41) published on Jun. 24, 1993, the specification of which is also incorporated herein by reference. A detailed experimental procedure for holoreceptor transactivations has been described by Heyman et al. Cell 68, 397-406, (1992); Allegretto et al. J. Biol. Chem. 268, 26625-26633, and Mangelsdorf et al. The Retinoids: Biology, Chemistry and Medicine, pp 319-349, Raven Press Ltd., New York, which are expressly incorporated herein by reference. The results obtained in this assay are expressed in EC50 numbers, as they are also in the, chimeric receptor transactivation assay. The results of the ligand binding assay are expressed in Ki numbers. (See Cheng et al. Biochemical Pharmacology Vol. 22 pp 3099-3108, expressly incorporated herein by reference.)
(§2) In Tables 1 and 2 the binding Ki numbers are indicated in the first 3 columns. In the second set of three columns the numbers in parentheses indicate efficacy as a percentage compared to the standard compound, (2E, 4E, 1′S, 2′S)-3-methyl-5-[2′-methyl-2′-(5,5,8,8-tetramethyl-5,6,7,8-tetrahydro-naphthalen-2-yl)-cyclopropyl]-penta-2,4-dienoic acid and the other numbers indicate the measured EC50 in nanomolar concentration.

RXRβ [2] = target: T2, RXRβ (Homo sapiens, UniProt P28702); assay: RXR ligand binding assay
T2 construct: expressed in transfected cells
T2 sequence (P28702 1-533): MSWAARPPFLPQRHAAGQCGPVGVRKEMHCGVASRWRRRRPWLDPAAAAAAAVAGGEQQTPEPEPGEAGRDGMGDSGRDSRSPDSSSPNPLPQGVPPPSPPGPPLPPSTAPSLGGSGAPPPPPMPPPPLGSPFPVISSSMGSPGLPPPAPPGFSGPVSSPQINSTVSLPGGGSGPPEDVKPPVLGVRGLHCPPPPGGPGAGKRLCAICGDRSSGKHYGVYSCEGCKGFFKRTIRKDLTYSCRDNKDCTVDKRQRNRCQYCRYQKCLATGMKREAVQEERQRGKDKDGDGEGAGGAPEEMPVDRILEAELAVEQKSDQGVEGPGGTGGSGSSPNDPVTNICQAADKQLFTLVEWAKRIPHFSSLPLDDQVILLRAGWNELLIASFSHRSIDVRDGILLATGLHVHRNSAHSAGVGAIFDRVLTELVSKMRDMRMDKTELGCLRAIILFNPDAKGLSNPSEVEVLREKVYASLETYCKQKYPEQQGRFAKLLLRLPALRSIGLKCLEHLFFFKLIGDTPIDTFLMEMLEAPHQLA
Excerpt: as §1, §2

[3] = test system: female diabetic db/db mice; assay: serum glucose, triglyceride and thyroxine levels in diabetic db/db mice; type: in vivo; conditions: for Glucose / Triglycerides / T4: db/db mice; for T4: Day 7
Excerpt: An assay described below tests the effect of compounds of the invention on serum glucose, tryglyceride and thyroxine levels in female 9-10 weeks old db/db mice.
Female diabetic db/db (9-10 weeks old) mice were maintained on standard laboratory food and treated by oral gavage with vehicle (corn oil), standard compound (2E, 4E, 1′S, 2S)-3-methyl-5-[2′-methyl-2′-(5,5,8,8-tetramethyl-5,6,7,8-tetrahydro-naphthalen-2-yl)-cyclopropyl]-penta-2,4-dienoic acid ([…]) daily for seven days at 8:00 AM. Blood samples (70 μl) were taken by orbital bleeding at 11:00 AM on day 0 (pre-treatment), day 3, and day 6. On day 7, a blood sample (700 μl) was taken at 11:00 AM and the animals were sacrificed. Glucose, triglyceride and thyroxine (T4) levels were determined on a Boehringer Manheim Hatachi Clinical Chemistry Analyzer using standard protocols provided by the manufacturer and reagents that were supplied in commercially available kits (glucose and T4: Boehringer Manheim; triglycerides: Roche Diagnostics). Seven animals were treated in each group.

RXRα [4] = target: T1, RXRα; assay: holoreceptor transactivation assay; type: cell-based; conditions: for Transactivation % Efficiency RXRα: efficacy as percentage compared to the standard compound; for pEC50: holoreceptor assay
Excerpt: as §1
(§3) Efficacy in a transactivation assay is expressed as a percentage of the maximum potency attained by the compound compared to a standard which, in this, case, is the compound named (2E, 4E, 1′S, 2′S)-3-methyl-5-[2′-methyl-2′-(5,5,8,8-tetramethyl-5,6,7,8-tetrahydro-naphthalen-2-yl)-cyclopropyl]-penta-2,4-dienoic acid. This standard compound is described in U.S. Pat. No. 6,114,533.
(§4) Table 1 discloses the activity of certain exemplary tetrahydronaphthale compounds of the invention in the above-described RXR receptor transactivation and binding assays. […] The transactivation data pertaining to the activation of RXR receptors were obtained in the holoreceptor assay.
as §2

RXRβ [5] = target: T2, RXRβ; assay: holoreceptor transactivation assay; type: cell-based; conditions: for Transactivation % Efficiency RXRβ: efficacy as percentage compared to the standard compound; for pEC50: holoreceptor assay
Excerpt: as §1, §3, §4, §2

RXRγ = target: T3, RXRγ (Homo sapiens, UniProt P48443); assay: holoreceptor transactivation assay; type: cell-based; conditions: for Transactivation % Efficiency RXRγ: efficacy as percentage compared to the standard compound; for pEC50: holoreceptor assay
T3 construct: expressed in transfected cells
T3 sequence (P48443 1-463): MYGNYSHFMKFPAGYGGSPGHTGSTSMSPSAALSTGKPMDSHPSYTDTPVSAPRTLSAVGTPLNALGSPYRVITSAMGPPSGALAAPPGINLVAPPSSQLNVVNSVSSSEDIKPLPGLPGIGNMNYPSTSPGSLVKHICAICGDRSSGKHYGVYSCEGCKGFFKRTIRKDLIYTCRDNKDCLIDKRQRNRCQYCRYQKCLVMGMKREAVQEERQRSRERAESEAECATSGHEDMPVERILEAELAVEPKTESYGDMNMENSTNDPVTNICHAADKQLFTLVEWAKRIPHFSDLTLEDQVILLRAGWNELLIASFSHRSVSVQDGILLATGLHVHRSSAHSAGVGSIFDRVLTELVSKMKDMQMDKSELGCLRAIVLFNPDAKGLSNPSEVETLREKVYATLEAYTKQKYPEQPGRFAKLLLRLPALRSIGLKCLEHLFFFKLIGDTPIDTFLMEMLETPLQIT
Excerpt: as §1, §3, §4, §2

[6] = Day 0 (pre-treatment), 50 mg/kg oral gavage daily
[7] = Day 3, 3 h, 50 mg/kg oral gavage daily
[8] = Day 6, 3 h, 50 mg/kg oral gavage daily
[9] = Day 0 (pre-treatment), 4 mg/kg oral gavage daily
[10] = Day 3, 3 h, 4 mg/kg oral gavage daily
[11] = Day 6, 3 h, 4 mg/kg oral gavage daily

Row | Compound | pKi (RXRα [1]) | pKi (RXRβ [2]) | Transactivation % Efficiency RXRα (RXRα [4]) | pEC50 (RXRα [4]) | Transactivation % Efficiency RXRβ (RXRβ [5]) | pEC50 (RXRβ [5]) | Transactivation % Efficiency RXRγ (RXRγ) | pEC50 (RXRγ) | also measured
1 | COC[C@H]1[C@@H](/C=C/C(C)=C/C(=O)O)[C@@]1(C)c1ccc2c(c1)C(C)(C)CCC2(C)C (stereo in doubt) [Compound 21a, (−)-(1R, 2S, 3 S)-5-[3-Methoxymethyl-2-methyl-2-(5,5,8,8-tetramethyl-5,6,7,8-tetrahydro-naphthalen-2-yl)-cyclopropyl]-3-methyl-penta-2E,4E-dienoic acid] | 8.30 | 7.32 | 39% | 8.40 | 38% | 7.44 | 41% | 8.22 | Glucose [3, 6]: 445 ± 66 mg/dL; Triglycerides [3, 6]: 271 ± 80 mg/dL; Glucose [3, 7]: 339 ± 194 mg/dL; Triglycerides [3, 7]: 130 ± 71 mg/dL; Glucose [3, 8]: 314 ± 196 mg/dL; Triglycerides [3, 8]: 180 ± 63 mg/dL; T4 ([3]; 50 mg/kg oral gavage daily): 4.2 ± 0.3 µg/dL
2 | CCOC[C@H]1[C@@H](/C=C/C(C)=C/C(=O)O)C1(C)c1ccc2c(c1)C(C)(C)CCC2(C)C (stereo in doubt) [Compound 21b, (−)-(1R, 2S, 3S)-5-[3-Ethoxymethyl-2-methyl-2-(5,5,8,8-tetramethyl-5,6,7,8-tetrahydro-naphthalen-2-yl)-cyclopropyl]-3-methyl-penta-2E,4E-dienoic acid] | 7.77 | 6.64 | 41% | 7.55 | – | < 6.00 | 34% | 7.36 | –
3 | COC[C@@H]1[C@@H](/C=C/C(C)=C/C(=O)O)C1(C)c1ccc2c(c1)C(C)(C)CCC2(C)C (stereo in doubt) [Compound 23a, (−)-(1R, 2S, 3R)-5-[3-Methoxymethyl-2-methyl-2-(5,5,8,8-tetramethyl-5,6,7,8-tetrahydro-naphthalen-2-yl)-cyclopropyl]-3-methyl-penta-2E,4E-dienoic acid] | 7.74 | 6.73 | 9% | 7.57 | 9% | 6.26 | 9% | 7.22 | –
4 | CCOC[C@@H]1[C@@H](/C=C/C(C)=C/C(=O)O)C1(C)c1ccc2c(c1)C(C)(C)CCC2(C)C (stereo in doubt) [Compound 23b, (−)-(1R, 2S, 3R)-5-[3-Ethoxymethyl-2-methyl-2-(5,5,8,8-tetramethyl-5,6,7,8-tetrahydro-naphthalen-2-yl)-cyclopropyl]-3-methyl-penta-2E,4E-dienoic acid] | 7.57 | 6.92 | – | – | – | – | – | – | –
5 | COCC1[C@@H](/C=C/C(C)=C/C(=O)O)C1(C)c1cc(C(C)C)cc(C(C)C)c1 (stereo in doubt) [Compound 29, (−)-(1R, 2S, 3S)-5-[3-Methoxymethyl-2-methyl-2-(3,5-diisopropyl-phenyl)-cyclopropyl]-3-methyl-penta-2E,4E-dienoic acid] | 7.96 | 7.31 | 24% | 8.30 | 34% | 7.33 | 35% | 7.80 | –
6 | COCC1[C@@H](/C=C/C(C)=C/C(=O)O)C1(C)c1cc(C(C)C)cc(C(C)C)c1 (stereo in doubt) [Compound 31a, (−)-(1R, 2S, 3R)-5-[3-Methoxymethyl-2-methyl-2-(3,5-diisopropyl-phenyl)-cyclopropyl]-3-methyl-penta-2E,4E-dienoic acid] | 8.12 | 7.60 | 104% | 8.57 | 90% | 7.77 | 101% | 8.44 | –
7 | CC(/C=C/[C@@H]1C[C@]1(C)c1ccc2c(c1)C(C)(C)CCC2(C)C)=C\C(=O)O [Standard compound, (2E, 4E, 1′S, 2′S)-3-methyl-5-[2′-methyl-2′-(5,5,8,8-tetramethyl-5,6,7,8-tetrahydro-naphthalen-2-yl)-cyclopropyl]-penta-2,4-dienoic acid] | – | – | – | – | – | – | – | – | Glucose [3, 9]: 423 ± 57 mg/dL; Triglycerides [3, 9]: 300 ± 76 mg/dL; Glucose [3, 10]: 315 ± 105 mg/dL; Triglycerides [3, 10]: 219 ± 80 mg/dL; Glucose [3, 11]: 268 ± 242 mg/dL; Triglycerides [3, 11]: 117 ± 22 mg/dL; T4 ([3]; 4 mg/kg oral gavage daily): 1.1 ± 0.2 µg/dL; effect on serum thyroxine levels (in words) ([3]; diabetic mammals): undesirable side effect of reducing serum thyroxine levels
